These results are taken from US20040053234A1, “Polynucletides that control delta-6 desaturase genes and methods for identifying compounds for modulating delta-6 desaturase” (priority 2000, published 2004).

Data set [1] deals with rD6D-1 (without V5/6xHis tags) (Rattus norvegicus, UniProt Q9Z122). Briefly: Inhibition of rD6D-1 in spheroplasts of transformed Saccharomyces cerevisiae. Particulars: [1-14C]-linoleic acid.
Method: Saccharomyces cerevisiae transformed with pYr5003.1 without V5/6×His tags or pTh5002.1 with V5/6×His tags were grown in modified SC-U medium with 2% galactose to induce the expression of the gene that encodes the fatty acid delta-6-desaturase. After 16 h incubation, cells were centrifuged at 2060×g for 5 min at 4° C., washed once with distilled water and centrifuged again. The volume and weight of the cell pellet were measured Cells were suspended (1:2 w/v) in 0.1 M Tris.SO4 (pH 9.4), 10 mM DTT and incubated at 30° C. After 10 min incubation, the cell pellet was obtained by centrifugation, washed once (1:20 w/v) with 1.2 M sorbitol and suspended (1:1 w/v) in 1.2 M sorbitol, 20 mM phosphate buffer (pH 7.4) as described elsewhere (Daum et al., 1982, J. Biol. Chem., 257: 13028-13033). The 15,800× g (1 min) supernatant of Lyticase was added to the cell suspension at a concentration of 2000 U/ml and the suspension incubated at 30° C. with 50 rpm shaking. Conversion to spheroplasts was checked after 40 min incubation by diluting the suspension with distilled water followed by observation under the microscope (Schatz G. and Kovac L., 1974, Methods in Enzymology, 31A: 627-632).
Spheroplasts were harvested by centrifugation at 2060×g for 5 min at 4° C. and washed once with 1.2 M sorbitol. Spheroplasts were suspended in modified SC-U medium with 1% tergitol, 1.2 M sorbitol and 2% galactose to maintain the induction conditions and to give an OD600 reading of approximately 2.5-3.0. A 10 ml aliquot of the spheroplast suspension was transferred to a 125 ml Erlenmeyer flask and incubated with 200 μL of n-propyl gallate in ethanol (final concentration in the culture ranged between 0.7 and 14.1 mM) at 30° C. in an orbital incubator set at 270 rpm After 30 min incubation 1 μCi of [1-^14C]-alpha-linolenic or [1-^14C]-linoleic acids were added to the cultures to a final concentration of 2 μM and further incubated for 120 min. At this time point, turbidity readings at OD600 were taken, spheroplasts were harvested by centrifugation and washed with Tris buffer (100 mM, pH 8.0) containing 0.1%/o BSA. Total lipids were extracted as described below.
The radioactivity from aliquots of the supernatant, spheroplasts and whole cells was determined by liquid scintillation counting using a LS6500-Scintillation System (Beckman) prior to the lipid extraction. Total lipids were extracted from cells or spheroplasts with chloroform/methanol (2:1 v/v) according to the method of Folch et al., 1957, J. Biol. Chem., 226: 497-509. The total lipid extracts were methylated using boron trifluoride in methanol at 90° C. for 30 min.
The desaturase activity was determined by measuring the conversion of radiolabelled linoleic acid to gammna-linolenic acid (18:2n-6 to 18:3n-6) and alpha-linolenic acid to stearidonic acid (18:3n-3 to 18:4n-3). The percent inhibition was calculated as described elsewhere (Kawashima et al., 1996, Biosci. Biotech. Biochem., 60:1672-1676):
Inhibition % =(activity without the inhibitor−activity with the inhibitor)/activity without the inhibitor
Data set [2] concerns spheroplasts of transformed Saccharomyces cerevisiae. Briefly: O.D.600 and substrate radioactivity recovered in spheroplasts (cytotoxicity, uptake). It is filed as cell-based. An excerpt: Total lipids were extracted as described below.
Data set [3] has as its target T1, hD6D-1 (with V5/6xHis tags) (Homo sapiens, UniProt O95864).
T1 sequence (O95864 1-444): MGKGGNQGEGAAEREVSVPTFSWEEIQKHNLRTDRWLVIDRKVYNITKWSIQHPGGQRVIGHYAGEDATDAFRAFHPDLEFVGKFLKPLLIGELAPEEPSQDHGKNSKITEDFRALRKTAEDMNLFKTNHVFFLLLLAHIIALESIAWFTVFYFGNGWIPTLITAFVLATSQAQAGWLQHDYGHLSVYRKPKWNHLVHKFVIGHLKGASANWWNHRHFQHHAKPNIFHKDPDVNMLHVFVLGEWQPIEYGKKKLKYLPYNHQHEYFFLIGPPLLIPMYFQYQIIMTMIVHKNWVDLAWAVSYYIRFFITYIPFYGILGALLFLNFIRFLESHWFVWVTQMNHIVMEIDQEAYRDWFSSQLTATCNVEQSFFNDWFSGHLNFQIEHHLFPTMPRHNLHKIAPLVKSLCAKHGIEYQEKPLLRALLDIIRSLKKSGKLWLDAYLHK
Put plainly: Inhibition of hD6D-1 in whole cells of transformed Saccharomyces cerevisiae. The data set is classed as cell-based. Details: expressed in transfected cells; host or cells: Saccharomyces cerevisiae INVSc1 transformed with pTh5002.1 (pYES2/CT). Conditions: [1-14C]-alpha-linolenic acid.
Method: Transformed Saccharomyces cerevisiae pTh5002.1 with V5/6xHis tags were incubated in a 125 ml Erlenmeyer flask containing 9 ml of modified SC-U medium with 1% tergitol (O.D.6000.4, approximately 3.2×10^6 cells) and 200 μl of 7, 14 or 28 mM n-propyl gallate in ethanol. After 1 h incubation in an orbital incubator at 270 rpm and 30° C., 1 μCi of potassium salts of [1-^14C]-linoleic or [1-^14C]-alpha-linolenic acids (dissolved in modified SC-U medium and 1% tergitol) were added to the cell suspension to a final concentration of 2 μM. After 5 h incubation with the inhibitor, cells reached the log phase and the transgene expression was induced with the addition of 1 ml of galactose to a final concentration of 2%. Yeast were further incubated for 19 h (OD600 range 7.2-9.3) until they were harvested by centrifugation at 5000×g for 10 minutes at 4° C. Cell were washed with Tris buffer (100 mM, pH 8.0) containing 0.1% BSA and total lipids were extracted as described below.
The radioactivity from aliquots of the supernatant, spheroplasts and whole cells was determined by liquid scintillation counting using a LS6500-Scintillation System (Beckman) prior to the lipid extraction. […]
The desaturase activity was determined by measuring the conversion of radiolabelled linoleic acid to gammna-linolenic acid (18:2n-6 to 18:3n-6) and alpha-linolenic acid to stearidonic acid (18:3n-3 to 18:4n-3). […]

A value given as a limit tells only on which side of the number the result lay.

rD6D-1 (without V5/6xHis tags), sequence (Q9Z122 whole entry): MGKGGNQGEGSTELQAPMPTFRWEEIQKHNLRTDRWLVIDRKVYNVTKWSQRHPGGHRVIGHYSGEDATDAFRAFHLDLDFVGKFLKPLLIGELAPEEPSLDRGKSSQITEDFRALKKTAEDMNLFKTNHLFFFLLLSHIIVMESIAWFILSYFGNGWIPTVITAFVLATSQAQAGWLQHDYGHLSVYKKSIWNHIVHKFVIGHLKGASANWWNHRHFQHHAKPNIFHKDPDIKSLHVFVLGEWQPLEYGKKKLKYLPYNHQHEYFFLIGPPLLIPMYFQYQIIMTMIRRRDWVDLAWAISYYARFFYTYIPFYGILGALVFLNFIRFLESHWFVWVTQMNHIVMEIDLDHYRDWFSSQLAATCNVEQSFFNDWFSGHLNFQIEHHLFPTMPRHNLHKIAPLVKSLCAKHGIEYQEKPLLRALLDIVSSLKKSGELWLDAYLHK

Consider `CCCOC(=O)c1cc(O)c(O)c(O)c1` [n-propyl gallate, Propyl ester of 3,4,5-trihydroxybenzoic acid], for which the “% of inhibition” value in data set [1] (inhibitor 0.7 mM) was 8.9%; in data set [1] (inhibitor 1.4 mM), 39.2%; in data set [1] (inhibitor 2.8 mM), 77.4%; in data set [1] (inhibitor 14.1 mM), 100%; in data set [3] (inhibitor 7 mM), 36.7%; in data set [3] (inhibitor 14 mM) it was 73.6%. For the same compound, the “Concentrations that may be toxic for the spheroplasts” value in data set [2] (cell number slightly decreased, radioactivity recovered substantially reduced) is > 5600 µM. Moreover, the O.D.600 was 2.2 in data set [2] (hD6D-1 spheroplasts, inhibitor 0.7 mM); 3.4 in data set [2] (hD6D-1 spheroplasts, inhibitor 1.4 mM); 3.1 in data set [2] (hD6D-1 spheroplasts, inhibitor 2.8 mM); 3.5 in data set [2] (hD6D-1 spheroplasts, inhibitor 5.6 mM); 2.5 in data set [2] (hD6D-1 spheroplasts, inhibitor 14.1 mM); 2.5 in data set [2] (rD6D-1 spheroplasts, inhibitor 0.7 mM). For the same compound, the O.D.600 is 2.6 in data set [2] (rD6D-1 spheroplasts, inhibitor 1.4 mM); 2.5 in data set [2] (rD6D-1 spheroplasts, inhibitor 2.8 mM); 2.6 in data set [2] (rD6D-1 spheroplasts, inhibitor 5.6 mM); 2.3 in data set [2] (rD6D-1 spheroplasts, inhibitor 14.1 mM). In data set [2] (n-propyl gallate 0.7-5.6 mM, constant O.D.600, similar radioactivity recovered), the Cytotoxicity to spheroplasts entry is recorded as “not cytotoxic”.
